From patent US20040039053A1, “Use of(-) (3-halomethylphenoxy) (4-halophenyl) acetic acid derivatives for treatment of insulin resistance, type 2 diabetes, hyperlipidemia and hyperuricemia” (priority 2000, published 2004)
Where “and” joins values, the source holds several entries; their conditions need not be identical. Identical values can stand only once. Like-named read-outs stand apart in the source and are kept apart here.

Key:
[1] = Pharmacokinetic study in SD rats, chiral HPLC of plasma halofenic acids (Example 14); type: in vivo; conditions: single oral dose of (−) halofenate 50 mg/kg
Method: Male 225-250 g SD rats were purchased from Charles River. […] A catheter was placed in the left carotid artery under sodium pentobarbital (50 mg/kg i.p.) and animals were allowed to recover for 2 days before treatment. […] The gavage volume was 5 ml/kg. Blood samples were collected at 1, 2, 4, 6, 8, 12, 24, 48, 72, 96 and 120 hours post dose. The plasma samples were analyzed for each enantiomeric acid ((−) halofenic acid and (+) halofenic acid) by a chiral specific HPLC assay, since the esters are prodrugs, which are designed to convert to their respective enantiomeric acids in vivo.

CYP2A6 = target: T1, CYP2A6 (Homo sapiens, UniProt P11509); conditions: both, 20 min
T1 sequence (P11509 1-494): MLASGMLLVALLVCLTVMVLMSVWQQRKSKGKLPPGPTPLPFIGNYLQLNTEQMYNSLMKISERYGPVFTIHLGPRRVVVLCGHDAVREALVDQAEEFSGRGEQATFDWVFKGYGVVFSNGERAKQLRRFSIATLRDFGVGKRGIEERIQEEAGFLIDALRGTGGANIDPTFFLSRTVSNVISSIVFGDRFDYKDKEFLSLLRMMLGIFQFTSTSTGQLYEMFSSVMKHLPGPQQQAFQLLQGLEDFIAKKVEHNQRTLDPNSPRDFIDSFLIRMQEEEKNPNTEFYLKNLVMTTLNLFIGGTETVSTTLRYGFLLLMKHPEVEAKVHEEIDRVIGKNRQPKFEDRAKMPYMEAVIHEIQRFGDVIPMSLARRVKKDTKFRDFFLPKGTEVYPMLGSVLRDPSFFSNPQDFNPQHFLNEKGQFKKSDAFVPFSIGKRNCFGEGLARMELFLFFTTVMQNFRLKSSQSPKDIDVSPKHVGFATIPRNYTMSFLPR

CYP2D6 = CYP2D6 (Homo sapiens, UniProt P10635); experiment: in vitro; conditions: both, microsomes
Chain of CYP2D6 (P10635 whole entry): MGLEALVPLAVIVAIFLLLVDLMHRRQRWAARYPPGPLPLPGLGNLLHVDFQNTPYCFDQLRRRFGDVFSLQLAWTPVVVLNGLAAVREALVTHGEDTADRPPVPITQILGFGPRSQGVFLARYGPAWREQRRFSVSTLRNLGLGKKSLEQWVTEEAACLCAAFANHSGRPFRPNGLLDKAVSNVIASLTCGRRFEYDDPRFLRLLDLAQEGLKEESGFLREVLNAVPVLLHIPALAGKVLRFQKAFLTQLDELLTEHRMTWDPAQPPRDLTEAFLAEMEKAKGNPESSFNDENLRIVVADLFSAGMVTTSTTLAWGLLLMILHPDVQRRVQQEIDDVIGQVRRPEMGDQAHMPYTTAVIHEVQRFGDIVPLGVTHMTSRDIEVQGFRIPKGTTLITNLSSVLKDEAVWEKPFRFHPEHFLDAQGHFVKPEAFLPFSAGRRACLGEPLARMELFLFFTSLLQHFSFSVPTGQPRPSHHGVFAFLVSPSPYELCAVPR

O=C(O)C(Oc1cccc(C(F)(F)F)c1)c1ccc(Cl)cc1 (single isomer, unassigned; (-)) [(−) halofenic acid, (−) 4-chlorophenyl-(3-trifluoromethylphenoxy)-acetic acid]
concentration at 96 h ([1]; male, SD, rat, plasma, oral, 50 mg/kg, individual rats 8, 11): 31.1 µg/mL
concentration at 120 h ([1]; male, SD, rat, plasma, oral, 50 mg/kg, rat 8): 20.3 µg/mL
plasma concentration at 0 hour ([1]; individual rats 8, 9, 11): BQL (BQL = Below Quantifiable Limit < 1.00 μg/mL)
plasma concentration at 1 hour ([1]; individual rats 8, 9, 11): 81.2 µg/mL and 23.7 µg/mL and 61.0 µg/mL
plasma concentration at 2 hours ([1]; individual rats 8, 9, 11): 100.1 µg/mL and 30.4 µg/mL and 87.8 µg/mL
plasma concentration at 4 hours ([1]; individual rats 8, 9, 11): 122.3 µg/mL and 36.9 µg/mL and 94.5 µg/mL
plasma concentration at 6 hours ([1]; individual rats 8, 9, 11): 128.3 µg/mL and 56.5 µg/mL and 116.3 µg/mL
plasma concentration at 8 hours ([1]; individual rats 8, 9, 11): 128.2 µg/mL and 79.0 µg/mL and 127.8 µg/mL
plasma concentration at 12 hours ([1]; individual rats 8, 9, 11): 135.3 µg/mL and 80.6 µg/mL and 104.8 µg/mL
plasma concentration at 24 hours ([1]; individual rats 8, 9, 11): 82.5 µg/mL and 73.1 µg/mL and 66.5 µg/mL
plasma concentration at 48 hours ([1]; individual rats 8, 9, 11): 56.2 µg/mL and 44.5 µg/mL and 47.1 µg/mL
plasma concentration at 72 hours ([1]; individual rats 8, 9, 11): 39.7 µg/mL and 37.4 µg/mL and 30.8 µg/mL
plasma concentration at 96 hours ([1]; individual rats 8, 11): 24.6 µg/mL
Coumarin 7-HC Production (CYP2A6; 0.33 μM): 33.3 ± 0.7 pmol/mg protein/min
Coumarin 7-HC Production (CYP2A6; 1 μM): 32.6 ± 0.7 pmol/mg protein/min
Coumarin 7-HC Production (CYP2A6; 3.3 μM): 32.1 ± 0.7 pmol/mg protein/min
Coumarin 7-HC Production (CYP2A6; 10 μM): 33.1 ± 0.7 pmol/mg protein/min
Coumarin 7-HC Production (CYP2A6; 33.3 μM): 32.3 ± 0.7 pmol/mg protein/min
inhibition at 15 min, 0.33 μM (CYP2D6): 3%
inhibition at 15 min, 1 μM (CYP2D6): 1%
inhibition at 15 min, 3.3 µM (CYP2D6): 6%
inhibition at 15 min, 10 µM (CYP2D6): 4%
inhibition at 15 min, 33.3 µM (CYP2D6): 5%
